Assay type in all cases: cell-based
For experiment [1], the system named is Clostridia. Description: Batch culture growth of Clostridia, titers on selective agar (Example 1). As to conditions: carbohydrate-deficient PYG batch culture, 37° C., anaerobic; supplement in place of glucose 3.0 g/L; FIG. 1. How it is done: (§1) Identical inoculua (A600∇1.0) of overnight cultures (PYG broth, 37° C., anaerobic) of each organism (Clostridia, Bacteroides, or B. lactis) were grown in batch culture (37° C., anaerobic) with constant stirring. Carbohydrate-deficient batch culture media (PYG) was supplemented with either glucose (3.0 g/L), oligofructose (FOS at 3.0 g/L), sialyllactose (3′- or 6′-sialyllactose at […]), or oligofructose plus sialyllactose (3.0 g/l and 100 mg/L, respectively). Growth was monitored at various time points (see FIG. 1) by determining the titers of the bacteria on selective agar (BIM-25 agar for Bifidobacteria and Wilkens-Chalgren agar for Clostridia and Bacteroides).

The subject of experiment [2] is Bacteroides. Description: Batch culture growth of Bacteroides, titers on selective agar (Example 1). The note with it: carbohydrate-deficient PYG batch culture, 37° C., anaerobic; supplement in place of glucose 3.0 g/L; FIG. 1. As to the method:
as §1

The subject of the next experiment is B. lactis. Description: Media pH of Bifidobacteria batch culture (Example 3). As to conditions: PYG batch culture, 37° C., anaerobic; pH monitored at various time points; FIG. 3. How it is done:
(§2) Identical inoculua (A600∇1.0) of overnight cultures (PYG broth, 37° C., anaerobic) of each organism was grown in batch culture (37° C., anaerobic) with constant stirring. Carbohydrate-deficient batch culture media (PYG) was supplemented as above. The media pH were monitored at various time points.

For experiment [3], the system named is Clostridia. Description: Media pH of Clostridia batch culture (Example 3). The note with it: PYG batch culture, 37° C., anaerobic; pH monitored at various time points; FIG. 3. How it is done: as §2
The subject of experiment [4] is Bacteroides. Description: Media pH of Bacteroides batch culture (Example 3). The note with it: PYG batch culture, 37° C., anaerobic; pH monitored at various time points; FIG. 3. As to the method: as §2

Consider 2 compounds from patent US20030060445A1, “Nutritional formulation containing prebiotic substances” (priority 2000, published 2003).

Consider `CC(=O)N[C@H]1[C@H]([C@H](O)[C@H](O)CO)O[C@@](O[C@H]2[C@@H](O)[C@@H](CO)O[C@@H](O[C@H]3[C@H](O)[C@@H](O)C(O)O[C@@H]3CO)[C@@H]2O)(C(=O)O)C[C@@H]1O` (some centres unmarked) [3′-sialyllactose], for which the “growth of Clostridia” value in the experiment with Clostridia [1] was “essentially no growth”. In addition, in the experiment on Bacteroides [2], the “growth of Bacteroides” value was “essentially no growth”.

On to sialyllactose, for which the “media pH change, Bifidobacteria (B. lactis / B. infantis) culture” value in the experiment on B. lactis was “the pH increased”. Besides, the “media pH change, Clostridia culture” value in the experiment on Clostridia [3] is “the pH increased”. The “media pH change, Bacteroides culture” value in the experiment on Bacteroides [4] is listed as “the pH increased”.
